Test results published in PubChem BioAssay (NCI).
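Five compound concentrations were applied to cells in 96-well plates for 48 hours; endpoints were derived by simple linear interpolation of the resulting dose-response curve. GI50 is the concentration that inhibits growth by half. TGI: concentration producing complete growth inhibition.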

What was measured:
Assay in all cases: growth of human tumour cells (NCI), 48 h
786-0 renal = tested on: 786-0 renal
A549 NSCLC = tested on: A549 NSCLC
ACHN renal = tested on: ACHN renal
BT-549 breast = tested on: BT-549 breast
CAKI-1 renal = tested on: CAKI-1 renal
CCRF-CEM leukemia = tested on: CCRF-CEM leukemia
COLO 205 colon = tested on: COLO 205 colon
DU-145 prostate = tested on: DU-145 prostate
EKVX NSCLC = tested on: EKVX NSCLC
HCT-116 colon = tested on: HCT-116 colon
HCT-15 colon = tested on: HCT-15 colon
HL-60(TB) leukemia = tested on: HL-60(TB) leukemia
HOP-62 NSCLC = tested on: HOP-62 NSCLC
HOP-92 NSCLC = tested on: HOP-92 NSCLC
HS 578T breast = tested on: HS 578T breast
HT29 colon = tested on: HT29 colon
IGROV1 ovarian = tested on: IGROV1 ovarian
K-562 leukemia = tested on: K-562 leukemia
KM12 colon = tested on: KM12 colon
M14 melanoma = tested on: M14 melanoma
MALME-3M melanoma = tested on: MALME-3M melanoma
MCF7 breast = tested on: MCF7 breast
MDA-MB-231 breast = tested on: MDA-MB-231 breast
MDA-MB-435 = tested on: MDA-MB-435
MOLT-4 leukemia = tested on: MOLT-4 leukemia
NCI-H23 lung = tested on: NCI-H23 lung
NCI-H460 lung = tested on: NCI-H460 lung
NCI-H522 lung = tested on: NCI-H522 lung
NCI/ADR-RES ovarian = tested on: NCI/ADR-RES ovarian
OVCAR-3 ovarian = tested on: OVCAR-3 ovarian
OVCAR-5 ovarian = tested on: OVCAR-5 ovarian
OVCAR-8 ovarian = tested on: OVCAR-8 ovarian
PC-3 prostate = tested on: PC-3 prostate
RPMI-8226 leukemia = tested on: RPMI-8226 leukemia
SF-268 CNS = tested on: SF-268 CNS
SF-295 CNS = tested on: SF-295 CNS
SF-539 CNS = tested on: SF-539 CNS
SK-MEL-2 melanoma = tested on: SK-MEL-2 melanoma
SK-MEL-5 melanoma = tested on: SK-MEL-5 melanoma
SK-OV-3 ovarian = tested on: SK-OV-3 ovarian
SN12C renal = tested on: SN12C renal
SNB-19 CNS = tested on: SNB-19 CNS
SR leukemia = tested on: SR leukemia
SW-620 colon = tested on: SW-620 colon
T-47D breast = tested on: T-47D breast
TK-10 renal = tested on: TK-10 renal
U251 CNS = tested on: U251 CNS
UACC-257 melanoma = tested on: UACC-257 melanoma
UACC-62 melanoma = tested on: UACC-62 melanoma
UO-31 renal = tested on: UO-31 renal
HCC-2998 colon = tested on: HCC-2998 colon
LOX IMVI melanoma = tested on: LOX IMVI melanoma
OVCAR-4 ovarian = tested on: OVCAR-4 ovarian
RXF 393 renal = tested on: RXF 393 renal
SK-MEL-28 melanoma = tested on: SK-MEL-28 melanoma

c1ccc2c(c1)SC1=Nc3sc4ccccc4[n+]3CN12
TGI (786-0 renal): 83.7 µM
TGI (A549 NSCLC): 25.5 µM
TGI (ACHN renal): > 100 µM
TGI (BT-549 breast): > 100 µM
TGI (CAKI-1 renal): 42.4 µM
TGI (CCRF-CEM leukemia): > 100 µM
TGI (COLO 205 colon): 10.9 µM
TGI (DU-145 prostate): > 100 µM
TGI (EKVX NSCLC): 53.5 µM
TGI (HCT-116 colon): > 100 µM
TGI (HCT-15 colon): > 100 µM
TGI (HL-60(TB) leukemia): 82.3 µM
TGI (HOP-62 NSCLC): > 100 µM
TGI (HOP-92 NSCLC): 47.5 µM
TGI (HS 578T breast): 67.9 µM
TGI (HT29 colon): 37.7 µM
TGI (IGROV1 ovarian): 46.3 µM
TGI (K-562 leukemia): 81.6 µM
TGI (KM12 colon): 29.3 µM
TGI (M14 melanoma): 66.2 µM
TGI (MALME-3M melanoma): 37.6 µM
TGI (MCF7 breast): 42.9 µM
TGI (MDA-MB-231 breast): 49.2 µM
TGI (MDA-MB-435): 49.5 µM
TGI (MOLT-4 leukemia): 39 µM
TGI (NCI-H23 lung): 59.8 µM
TGI (NCI-H460 lung): 44.1 µM
TGI (NCI-H522 lung): 9.03 µM
TGI (NCI/ADR-RES ovarian): > 100 µM
TGI (OVCAR-3 ovarian): 11.7 µM
TGI (OVCAR-5 ovarian): 71.1 µM
TGI (OVCAR-8 ovarian): > 100 µM
TGI (PC-3 prostate): > 100 µM
TGI (RPMI-8226 leukemia): 59.6 µM
TGI (SF-268 CNS): 49.7 µM
TGI (SF-295 CNS): > 100 µM
TGI (SF-539 CNS): 69 µM
TGI (SK-MEL-2 melanoma): 28.7 µM
TGI (SK-MEL-5 melanoma): 10.9 µM
TGI (SK-OV-3 ovarian): 66.8 µM
TGI (SN12C renal): 71.1 µM
TGI (SNB-19 CNS): > 100 µM
TGI (SR leukemia): 56.8 µM
TGI (SW-620 colon): > 100 µM
TGI (T-47D breast): 78 µM
TGI (TK-10 renal): 76.6 µM
TGI (U251 CNS): 21.6 µM
TGI (UACC-257 melanoma): > 100 µM
TGI (UACC-62 melanoma): 45.1 µM
TGI (UO-31 renal): > 100 µM

COC(=O)C1=C(O)[C@H](C(=O)OC)C2(O)[C@@H](C(=O)OC)[C@H]1C[C@@H](c1ccc(OC(=O)n3ccnc3)cc1)[C@@H]2C(=O)OC
GI50 (786-0 renal): 18.6 µM
TGI (786-0 renal): 45.6 µM
GI50 (A549 NSCLC): 15.2 µM
TGI (A549 NSCLC): > 50 µM
GI50 (ACHN renal): 15.9 µM
TGI (ACHN renal): 42.6 µM
GI50 (BT-549 breast): 8.68 µM
TGI (BT-549 breast): 24.9 µM
GI50 (CAKI-1 renal): 12.7 µM
TGI (CAKI-1 renal): 41.6 µM
GI50 (COLO 205 colon): 9.69 µM
TGI (COLO 205 colon): 34.1 µM
GI50 (DU-145 prostate): 11.7 µM
TGI (DU-145 prostate): 42.9 µM
GI50 (EKVX NSCLC): 13.1 µM
TGI (EKVX NSCLC): 45.4 µM
GI50 (HCC-2998 colon): 9.63 µM
TGI (HCC-2998 colon): 18 µM
GI50 (HCT-116 colon): 16.8 µM
TGI (HCT-116 colon): > 50 µM
GI50 (HCT-15 colon): 21 µM
TGI (HCT-15 colon): > 50 µM
GI50 (HL-60(TB) leukemia): 13.3 µM
TGI (HL-60(TB) leukemia): > 50 µM
GI50 (HOP-62 NSCLC): 31.3 µM
TGI (HOP-62 NSCLC): > 50 µM
GI50 (HOP-92 NSCLC): 17.3 µM
TGI (HOP-92 NSCLC): > 50 µM
GI50 (HS 578T breast): 12.6 µM
TGI (HS 578T breast): 41.3 µM
GI50 (IGROV1 ovarian): 6.62 µM
TGI (IGROV1 ovarian): 25.4 µM
GI50 (K-562 leukemia): 20.3 µM
TGI (K-562 leukemia): > 50 µM
GI50 (KM12 colon): 10.6 µM
TGI (KM12 colon): 24.5 µM
GI50 (LOX IMVI melanoma): 13.8 µM
TGI (LOX IMVI melanoma): > 50 µM
GI50 (M14 melanoma): 30.3 µM
TGI (M14 melanoma): > 50 µM
GI50 (MCF7 breast): 18.4 µM
TGI (MCF7 breast): > 50 µM
GI50 (MDA-MB-231 breast): 14.8 µM
TGI (MDA-MB-231 breast): 48.6 µM
GI50 (MDA-MB-435): 8.77 µM
TGI (MDA-MB-435): 21.4 µM
GI50 (NCI-H23 lung): 13.9 µM
TGI (NCI-H23 lung): 25.6 µM
GI50 (NCI-H460 lung): 17 µM
TGI (NCI-H460 lung): > 50 µM
GI50 (NCI-H522 lung): 10.9 µM
TGI (NCI-H522 lung): 34.4 µM
GI50 (NCI/ADR-RES ovarian): 16.1 µM
TGI (NCI/ADR-RES ovarian): 30.7 µM
GI50 (OVCAR-3 ovarian): 12.6 µM
TGI (OVCAR-3 ovarian): > 50 µM
GI50 (OVCAR-4 ovarian): 20.2 µM
TGI (OVCAR-4 ovarian): > 50 µM
GI50 (OVCAR-5 ovarian): 25.7 µM
TGI (OVCAR-5 ovarian): > 50 µM
GI50 (OVCAR-8 ovarian): 13.4 µM
TGI (OVCAR-8 ovarian): 36.4 µM
GI50 (PC-3 prostate): 22.4 µM
TGI (PC-3 prostate): > 50 µM
GI50 (RPMI-8226 leukemia): 18.1 µM
TGI (RPMI-8226 leukemia): > 50 µM
GI50 (RXF 393 renal): 11.8 µM
TGI (RXF 393 renal): 26.7 µM
GI50 (SF-268 CNS): 18.7 µM
TGI (SF-268 CNS): > 50 µM
GI50 (SF-295 CNS): 12.7 µM
TGI (SF-295 CNS): 45.6 µM
GI50 (SF-539 CNS): 8.44 µM
TGI (SF-539 CNS): 21.3 µM
GI50 (SK-MEL-2 melanoma): 22.8 µM
TGI (SK-MEL-2 melanoma): > 50 µM
GI50 (SK-MEL-28 melanoma): 10.1 µM
TGI (SK-MEL-28 melanoma): 30.5 µM
GI50 (SK-MEL-5 melanoma): 12.7 µM
TGI (SK-MEL-5 melanoma): 36.7 µM
GI50 (SK-OV-3 ovarian): 10.3 µM
TGI (SK-OV-3 ovarian): 29.6 µM
GI50 (SN12C renal): 11.4 µM
TGI (SN12C renal): 30 µM
GI50 (SNB-19 CNS): 19.6 µM
TGI (SNB-19 CNS): > 50 µM
GI50 (SR leukemia): 10.8 µM
TGI (SR leukemia): > 50 µM
GI50 (SW-620 colon): 14.3 µM
TGI (SW-620 colon): > 50 µM
GI50 (T-47D breast): 7.39 µM
TGI (T-47D breast): 46.4 µM
GI50 (TK-10 renal): 36.8 µM
TGI (TK-10 renal): > 50 µM
GI50 (U251 CNS): 17.9 µM
TGI (U251 CNS): > 50 µM
GI50 (UACC-257 melanoma): 16 µM
TGI (UACC-257 melanoma): 39.8 µM
GI50 (UACC-62 melanoma): 9.07 µM
TGI (UACC-62 melanoma): 30.4 µM
GI50 (UO-31 renal): 8.87 µM
TGI (UO-31 renal): 17.8 µM
